In patent US9238697B2, “Polymeric materials and methods” (The Regents of the University of California, priority 2005, dated 2016):
Non-standard residues stand in square brackets, D forms with d. Residues, ends and D or L forms follow the SMILES beside them. ξ: configuration not given here. *: point of attachment. Boc = CC(C)(C)OC(=O)*; ξK = NCCCCC(N)C(=O)O

Assay: Solubility of peptide monomer
Assay type: physicochemical
Settings: water, or water/solvent mixtures
Experimental: As described further below, Poly 1-3 were tested for gene delivery applications. As contemplated structures are highly adaptable, structural variations can be made with relative ease to optimize gene transfection levels while maintaining relatively low levels of cytotoxicity. Initial manipulations were performed involving lengthening the peptidyl monomer sequence with additional L-lysine residues to thereby increase the charge density of the polymer overall and to thereby offer stronger DNA binding. It should be recognized that where increased charge density improves the gene transfectability of the polymer system, more residues can be added until an optimal length is found. […] For this reason, solution phase polymerizations were attempted to yield small polymer chains and cyclic structures. One example of cyclic structures is given in Structure VI below.

Question: With `COC(=O)[C@H](CCCCN)NC(=O)C(CCCCNC(=O)OC(C)(C)C)NC(=O)C(CCCCNC(=O)OC(C)(C)C)NC(=O)C(CCCCNC(=O)OC(C)(C)C)NC(=O)[C@H](CCCCN)NC(=O)OC(C)(C)C` (stereo partly shown) [pentalysine monomer] (Boc-K[ξK](Boc)[ξK](Boc)[ξK](Boc)K-OMe) as the compound, how does the solubility read?
Answer: insoluble
